Measurements: US9504691B2, “Finafloxacin suspension compositions” (ALCON RESEARCH, LTD., priority 2012, dated 2016)
Values after ≈ are worked out from the molar mass of the structure shown.

Tests used:
[1] = tested on: Ciprofloxacin-Resistant S. aureus; assay: In vitro antimicrobial susceptibility (MIC), Ciprofloxacin-Resistant S. aureus; format: cell-based; settings: 12 isolates; for MIC50 / MIC90: unit assumed; for MIC Range: in µg/mL (unit assumed)
Procedure: (§1) A finafloxacin solution composition at pH 5.8 and 7.3 was compared to ciprofloxacin and ofloxacin compositions using standard in vitro antimicrobial susceptibility tests (M07-08 Methods for Dilution Antimicrobial Susceptibility Tests for Bacteria that Grow Aerobically; Approved Standard-Eighth Edition (January 2009, Clinical and Laboratory Standards Institute), herein incorporated by reference). Minimum inhibitory concentrations (MIC50) were determined using organisms commonly found in otic and ophthalmic infections. The MIC50 was the lowest concentration of antibiotic that prevented growth of the test organism, as determined visually by a lack of turbidity.
(§2) The results of the experiment are presented below in TABLES 1-5. At acidic pH, finafloxacin generally had greater activity against both Gram-positive and Gram-negative organisms than the fluoroquinolones ciprofloxacin and ofloxacin, both of which are used for the treatment of otic infections. Higher activity under acidic conditions is important for an otic formulation since a low pH formulation is preferred to slow bacterial and fungal growth, as well as the fact the pH environment of the external ear canal is ˜pH 6.

[2] = tested on: Ciprofloxacin-Susceptible S. aureus; assay: In vitro antimicrobial susceptibility (MIC), Ciprofloxacin-Susceptible S. aureus; format: cell-based; settings: 8 isolates; for MIC Range: in µg/mL (unit assumed)
Procedure: as §1, §2

[3] = tested on: Ciprofloxacin-Resistant P. aeruginosa; assay: In vitro antimicrobial susceptibility (MIC), Ciprofloxacin-Resistant P. aeruginosa; format: cell-based; settings: 11 isolates; for MIC Range: in µg/mL (unit assumed)
Procedure: as §1, §2

[4] = tested on: Ciprofloxacin-Susceptible P. aeruginosa; assay: In vitro antimicrobial susceptibility (MIC), Ciprofloxacin-Susceptible P. aeruginosa; format: cell-based; settings: 14 isolates; for MIC Range: in µg/mL (unit assumed)
Procedure: as §1, §2

E. coli = assay: In vitro antimicrobial susceptibility (MIC), E. coli; format: cell-based; settings: 10 isolates
Procedure: as §1, §2

[5] = Stability studies of finafloxacin formulations; format: physicochemical; settings: aqueous solutions at pH between 5 and 6
Procedure: Exploratory stability studies were conducted to physical and chemical stability characteristics of formulations of the present invention.

[6] = Stability of finafloxacin free base polymorphs at high temperatures; format: physicochemical; settings: temperatures such as those encountered during heat sterilization; compared with forms B and C
Text: A preferred form of finafloxacin for use in embodiments of the present invention is finafloxacin free base. At least three polymorphs of the finafloxacin free base have been identified (forms A, B, and C). […] The crystalline form of finafloxacin free base form A has an X-ray diffraction spectrum substantially the same as the X-ray powder diffraction spectrum shown in FIG. 1.

[7] = pH 5.8, in µg/mL (unit assumed)
[8] = pH 7.3, in µg/mL (unit assumed)

| MIC50 ([1]; pH 5.8) [µg/mL] | MIC90 ([1]; pH 5.8) [µg/mL] | MIC Range ([1]; pH 7.3) | MIC50 ([1]; pH 7.3) [µg/mL] | MIC90 ([1]; pH 7.3) [µg/mL] | MIC50 ([2]; pH 5.8) [µg/mL] | MIC50 ([2]; pH 7.3) [µg/mL] | MIC Range ([2]; pH 7.3) | MIC50 ([3]; pH 5.8) [µg/mL] | MIC90 ([3]; pH 5.8) [µg/mL] | MIC50 ([3]; pH 7.3) [µg/mL] | MIC90 ([3]; pH 7.3) [µg/mL] | MIC50 ([4]; pH 5.8) [µg/mL] | MIC90 ([4]; pH 5.8) [µg/mL] | MIC Range ([4]; pH 5.8) | MIC50 ([4]; pH 7.3) [µg/mL] | MIC90 ([4]; pH 7.3) [µg/mL] | MIC Range ([4]; pH 7.3) | MIC50 (E. coli; pH 5.8) [µg/mL] | MIC90 (E. coli; [7]) | Compound | other results |
| --- | --- | --- | --- | --- | --- | --- | --- | --- | --- | --- | --- | --- | --- | --- | --- | --- | --- | --- | --- | --- | --- |
| 128 (≈ 386 µM) | > 256 | 4-128 | 128 (≈ 386 µM) | 128 (≈ 386 µM) | 1 (≈ 3.02 µM) | 0.25 (≈ 0.754 µM) | 0.125-1 | 64 (≈ 193 µM) | > 512 | 16 (≈ 48.3 µM) | 512 (≈ 1550 µM) | 1 (≈ 3.02 µM) | 8 (≈ 24.1 µM) | 0.125-8 | 0.5 (≈ 1.51 µM) | 2 (≈ 6.04 µM) | 0.063-2 | 256 (≈ 773 µM) | >1024 | O=C(O)c1cn(C2CC2)c2cc(N3CCNCC3)c(F)cc2c1=O [Ciprofloxacin, ciprofloxacin] | MIC Range ([3]; pH 7.3): 4-512; MIC50 (E. coli; pH 7.3): 16 µg/mL (≈ 48.3 µM); MIC Range (E. coli; pH 7.3): ≦0.008-128; MIC90 (E. coli; [8]): 128 |
| 4 (≈ 10 µM) | 8 (≈ 20.1 µM) | 2-16 | 16 (≈ 40.2 µM) | 16 (≈ 40.2 µM) | 0.016 (≈ 0.0402 µM) | 0.125 (≈ 0.314 µM) | 0.016-0.25 | 16 (≈ 40.2 µM) | 512 (≈ 1290 µM) | 512 (≈ 1290 µM) | > 512 | 1 (≈ 2.51 µM) | 4 (≈ 10 µM) | 0.25-4 | 4 (≈ 10 µM) | 16 (≈ 40.2 µM) | 2-16 | 4 (≈ 10 µM) | 8 | N#Cc1c(N2C[C@@H]3NCCO[C@H]3C2)c(F)cc2c(=O)c(C(=O)O)cn(C3CC3)c12 [Fina., 8-cyano-1-cyclopropyl-6-fluoro-7-[(4aS,7aS)-hexahydropyrrolo[3,4-b]-1,4-oxazin-6(2H)-yl]-1,4-dihydro-4-oxo-3-quinolinecarboxylic acid] | MIC Range ([1]; pH 5.8): 0.5-8; MIC Range ([2]; pH 5.8): 0.008-0.125; MIC Range ([3]; pH 5.8): 2-512; MIC Range (E. coli; [7]): 0.0078-8; MIC50 (E. coli; pH 7.3): 32 µg/mL (≈ 80.3 µM); MIC90 (E. coli; [8]): 64; MIC Range (E. coli; [8]): 0.008-64; precipitate formation in stability studies [5]: precipitates form |
| – | – | – | – | – | – | – | – | – | – | – | – | – | – | – | – | – | – | – | – | N#Cc1c(N2C[C@@H]3NCCO[C@H]3C2)c(F)cc2c(=O)c(C(=O)O)cn(C3CC3)c12 [finafloxacin free base form A] | stability of polymorph at high temperatures [6]: most stable at high temperatures |

| Compound | MIC50 ([1]; pH 5.8) [µg/mL] | MIC90 ([1]; pH 5.8) [µg/mL] | MIC Range ([1]; pH 7.3) | MIC50 ([1]; pH 7.3) [µg/mL] | MIC90 ([1]; pH 7.3) [µg/mL] | MIC50 ([2]; pH 5.8) [µg/mL] | MIC50 ([2]; pH 7.3) [µg/mL] | MIC Range ([2]; pH 7.3) | MIC50 ([3]; pH 5.8) [µg/mL] | MIC90 ([3]; pH 5.8) [µg/mL] | MIC50 ([3]; pH 7.3) [µg/mL] | MIC90 ([3]; pH 7.3) [µg/mL] | MIC50 ([4]; pH 5.8) [µg/mL] | MIC90 ([4]; pH 5.8) [µg/mL] | MIC Range ([4]; pH 5.8) | MIC50 ([4]; pH 7.3) [µg/mL] | MIC90 ([4]; pH 7.3) [µg/mL] | MIC Range ([4]; pH 7.3) | MIC50 (E. coli; pH 5.8) [µg/mL] | MIC90 (E. coli; [7]) | other results |
| --- | --- | --- | --- | --- | --- | --- | --- | --- | --- | --- | --- | --- | --- | --- | --- | --- | --- | --- | --- | --- | --- |
| CC1COc2c(N3CCN(C)CC3)c(F)cc3c(=O)c(C(=O)O)cn1c23 (stereo not drawn) [Ofloxacin, ofloxacin] | 64 (≈ 177 µM) | > 512 | 2-256 | 32 (≈ 88.6 µM) | 256 (≈ 708 µM) | 1 (≈ 2.77 µM) | 0.25 (≈ 0.692 µM) | 0.125-0.5 | 256 (≈ 708 µM) | > 512 | 64 (≈ 177 µM) | > 512 | 4 (≈ 11.1 µM) | 32 (≈ 88.6 µM) | 1-32 | 2 (≈ 5.53 µM) | 4 (≈ 11.1 µM) | 1-4 | 512 (≈ 1420 µM) | 512 | MIC Range ([2]; pH 5.8): 0.5-64; MIC Range (E. coli; [7]): 0.25-512; MIC50 (E. coli; pH 7.3): 16 µg/mL (≈ 44.3 µM); MIC90 (E. coli; [8]): 16; MIC Range (E. coli; [8]): 0.016-16 |
